Reference: patent US20140303251A1, “Methods Of Treating Acute Kidney Injury With Retinoic Acid” (Beth Israel Deaconess Medical Center, Inc., priority 2011, published 2014)

Columns and labels:
[1] = system: primary cultures of renal proximal tubule epithelial cells (RPTECs); assay: in vitro IRI model: primary RPTEC cultures, mineral oil overlay induced hypoxia followed by reperfusion, qPCR; format: cell-based, mice; settings: for CCL20 induction: Nur77 knockout RPTECs; for Nur77 levels (induction after ischemia-reperfusion): RPTECs, hypoxia by mineral oil overlay then reperfusion; for Nur77 levels (induction after ischemia-reperfusion) / Induction of Nr4a family members (Nor-1, Nurr1): vs vehicle; for Induction of Nr4a family members (Nor-1, Nurr1): both wild type and Nur77 knockout RPTEC cultures
Experimental: (§1) Kidney tissues were snap frozen and stored at −80 deg C. until processing. The tissues were homogenized and total RNA was prepared using RNeasy kit (Qiagen). DNA contamination was eliminated by DNase digestion. The reverse transcribed cDNA was subjected to qPCR using a Sybr green based detection system (SA Bioscience). Relative levels of mRNA was normalized to GAPDH levels and quantified based on 2e-deltaCT method.
Kidneys from 4-5 weeks old mice were harvested after perfusion with sterile PBS. Cortex was separated and minced into ˜1 mm3 pieces and digested using collagenase and soybean trypsin inhibitor for 30 min and 37 degC. The digested mix was spun down and filtered through 200 uM filter followed by a 70 uM filter. The tubules that are retained on the top of the 70 uM filter were collected and cultured in Renal life cell growth medium (Lifeline cell technology) on collagen coated plates. After 7 days of culturing, the cells were used for experiments. The purity of the culture was ascertained by staining for cytokeratin (Anti-cytokeratin antibody: Sigma). To induce ischemia reperfusion injury, confluent monolayer of RPTECs was overlayed with mineral oil for 1 h, followed by reperfusion with complete medium.
Retinoic acid can antagonize Nur77 function by inhibiting its transcriptional induction, DNA binding and nuclear export^17,18. RXRs heterodimerize with Nur77 in response to cell death stimuli, promoting nuclear export and causing Bcl-2 dependent cytochrome c release and apoptosis. Ligand bound RXR inhibits Nur77 function either by retaining it in the nucleus or by inhibiting its transcription by an AP-1 dependent mechanism^18. Since Nur77 deficient mice were protected from renal IRI, whether pharmacologic antagonism of Nur77 by retinoic acid could be used to protect kidneys from acute injury was assessed. To determine whether retinoids could regulate Nur77-dependent signaling in renal epithelia, primary cultures of renal proximal tubule epithelial cells (RPTECs) were generated from either wild type or Nur77 knockout mice. RPTECs were treated with either vehicle or 9-cis-retinoic acid, and subjected to mineral oil overlay induced hypoxia, followed by reperfusion.

renal IRI = assay: renal ischemia reperfusion injury (IRI) in mice, 9-cis retinoic acid given 4 h prior; format: in vivo; settings: for BUN (serum blood urea nitrogen) / serum creatinine / tubular / renal injury score / apoptotic cells in kidney (TUNEL) / neutrophil infiltration in kidney / CXCL2 gene expression level in kidney: 10 mg/kg 4 h prior to IRI; for BUN (serum blood urea nitrogen) / serum creatinine: 24 h after IRI; for BUN (serum blood urea nitrogen) / serum creatinine / tubular / renal injury score / apoptotic cells in kidney (TUNEL) / neutrophil infiltration in kidney / CXCL2 gene expression level in kidney / Nor-1 and Nurr-1 levels in kidney / Nur77 gene expression level in kidney: vs vehicle; for BUN (serum blood urea nitrogen): P<0.0001; for serum creatinine: P<0.002; for apoptotic cells in kidney (TUNEL) / neutrophil infiltration in kidney: P<0.001; for CXCL2 gene expression level in kidney: P<0.02; for Nor-1 and Nurr-1 levels in kidney / Nur77 gene expression level in kidney: 10 mg/kg body weight 4 h prior to IRI, 24 hours after injury, qPCR; for localization pattern of Nur77: 24 h post IRI, immunochemistry
Experimental: Male mice of age 8-10 weeks were used in this study. Animals were anesthetized using xylazine and ketamine and kept on 37° C. warming pads. The kidneys were exposed by flank incision and both kidney pedicles were clamped for 45 minutes using non-traumatic microaneurysm clamps (Roboz, Rockville, Md.). Reperfusion was confirmed visually and the incision was sutured. Body temperature of the animals was maintained at 37° C. throughout the procedure.
9-cis retinoic acid in DMSO was administered to animals at a dose of 10 mg/kg body weight, 4 h prior to the IRI procedure. The final concentration of DMSO was 25% (v/v). Control animals received 25% (v/v) DMSO.
Kidneys from animals subjected to IRI were harvested. Transverse sections of the kidneys were either snap frozen in OCT or fixed in 10% formalin and processed for paraffin embedded sections. Renal morphology was assessed by PAS staining (Periodic acid-Schiff reagent). Neutrophil infiltration was assessed by staining formalin fixed paraffin embedded (FFPE) sections with anti-Ly6G (BD). Infiltrating neutrophils were counted in 3 independent HPFs (400×) per section per animal and represented as mean±SEM. Nur77 staining was carried out on FFPE sections after antigen retrievel using anti-mouse Nur77 antibody (Ebioscience). Endogenous mouse Ig was blocked using M.O.M kit from vector labs.
Kidney cell apoptosis was assessed by TUNEL staining using ApopTag® Peroxidase In Situ Apoptosis Detection Kit (Millipore). The apoptotic index was calculated as percentage of dead cells in 3 independent 400×HPF per section per animal by, counting both stained nuclei and total nuclei.
Serum plasma was collected 24 h after ischemia reperfusion and stored at −80 deg C. until further processing. Serum creatinine was quantified using QuantiChrom™ Creatinine Assay Kit (Bioassays systems). Serum blood urea nitrogen levels were measured using Infinity Urea liquid stable reagent (Thermo fisher).
as §1

[2] = Nur77+/+ (wild type) RPTECs, listed as 9-cis-RA

CC1=C(/C=C/C(C)=C\C=C\C(C)=C\C(=O)O)C(C)(C)CCC1 [9-cis-retinoic acid]
CCL20 levels ([1]; Nur77+/+ (wild type) RPTECs): very substantially reduced | Induction of CXCL2 ([1]; Nur77+/+ (wild type) RPTECs): significantly attenuated | CCL20 levels [1, 2]: reduced | Induction of CXCL2 [1, 2]: reduced | CCL20 induction [1]: no further effect | CCL20 induction ([1]; listed as 9-cis-RA): did not substantially reduce the expression level further | Induction of CXCL2 ([1]; RPTECs from Nur77 knockout kidneys): no further inhibitory effect | Induction of CXCL2 ([1]; RPTECs from Nur77 knockout kidneys, listed as 9-cis-RA): did not substantially reduce the expression level further | Nur77 levels (induction after ischemia-reperfusion) [1]: reduced by about half | Nur77 levels (induction after ischemia-reperfusion) ([1]; listed as 9-cis-RA): attenuated the induction | Induction of Nr4a family members (Nor-1, Nurr1) [1]: inhibited | Induction of Nr4a family members (Nor-1, Nurr1) ([1]; listed as 9-cis-RA): attenuated the induction | BUN (serum blood urea nitrogen) (renal IRI): reduced | BUN (serum blood urea nitrogen) (renal IRI; listed as 9-cis-RA): significantly lower | serum creatinine (renal IRI): reduced | serum creatinine (renal IRI; listed as 9-cis-RA): significantly lower | tubular / renal injury score (renal IRI): improved | apoptotic cells in kidney (TUNEL) (renal IRI): significantly less | neutrophil infiltration in kidney (renal IRI): much less | apoptotic cells in kidney (TUNEL) (renal IRI; listed as 9-cis-RA): fewer apoptotic cells | neutrophil infiltration in kidney (renal IRI; listed as 9-cis-RA): fewer | CXCL2 gene expression level in kidney (renal IRI): Reduced | CXCL2 gene expression level in kidney (renal IRI; listed as 9-cis-RA): greatly diminished | tubular / renal injury score (renal IRI; listed as 9-cis-RA): less injured | Nor-1 and Nurr-1 levels in kidney (renal IRI): dramatically lower induction | Nur77 gene expression level in kidney (renal IRI): dramatically lower induction | Nor-1 and Nurr-1 levels in kidney (renal IRI; listed as 9-cis-RA): reduced | Nur77 gene expression level in kidney (renal IRI; listed as 9-cis-RA): significantly diminished | localization pattern of Nur77 (renal IRI): cytoplasmic | localization pattern of Nur77 (renal IRI; listed as 9 cis-RA): unaltered | overall level of Nur77 protein expression in kidney (immunochemistry) (renal IRI; mice that received 9-cis-retinoic acid, after renal IRI): dramatically reduced | transcript level of HIF-1 alpha (renal IRI; treatment prior to the induction of IRI): unchanged
